Positions of bridges follow the written chain, without caps; N, C: chain ends. Non-standard residues stand in square brackets, D forms with d. Residues, ends and D or L forms follow the SMILES beside them. NMePhe(4-NO2) = CN[C@@H](Cc1ccc([N+](=O)[O-])cc1)C(=O)O; Phe(4-NO2) = N[C@@H](Cc1ccc([N+](=O)[O-])cc1)C(=O)O; 2Nal = N[C@@H](Cc1ccc2ccccc2c1)C(=O)O; d2Nal = N[C@H](Cc1ccc2ccccc2c1)C(=O)O; Abu = CC[C@H](N)C(=O)O

Chain of SSTR2 (P30680 whole entry): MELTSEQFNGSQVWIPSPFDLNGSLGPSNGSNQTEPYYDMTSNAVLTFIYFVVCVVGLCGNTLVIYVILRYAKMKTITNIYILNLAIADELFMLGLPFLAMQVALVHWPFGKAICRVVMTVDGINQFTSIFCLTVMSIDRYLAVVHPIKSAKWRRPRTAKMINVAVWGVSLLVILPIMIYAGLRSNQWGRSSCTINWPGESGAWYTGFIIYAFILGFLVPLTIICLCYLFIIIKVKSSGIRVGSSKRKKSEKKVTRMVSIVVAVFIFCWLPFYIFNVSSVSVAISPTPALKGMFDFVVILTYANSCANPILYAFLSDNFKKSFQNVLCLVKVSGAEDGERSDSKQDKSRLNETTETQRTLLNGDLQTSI

The assay addresses SSTR2 (Rattus norvegicus, UniProt P30680). The assay can be described thus: Cyclic AMP accumulation in intact cells (adrenal binding protein method). It is filed as cell-based. As to conditions: forskalin stimulated c-AMP levels in intact cells, 15 minutes at 37°C; read-out: % IA (% intrinsic activity). The source says:
Cyclic AMP accumulation assays are used to determine the functional coupling of somatostatin receptors to effectors. All five cloned somatostatin receptors inhibit cyclic AMP accumulation and adenylyl cyclone activity ^1 ^,2,3,4,5. This evaluation measures cyclic AMP accumulation from intact cells using the adrenal binding protein method. Signal transduction by somatostatin is mediated by lowering intracellular c-AMP levels. This functional assay measures the ability of the test compound to inhibit the effect of somatostatin on forskalin stimulated c-AMP levels. ^1 K. Yasuda, S. Rens-Damiano, C. D. Breder, S. F. Law, C. B. Saper, T. Reisine and G. I. Bell, J. Biol. Chem. 267,20422-20428 (1992). ^2 J. F. Bruno, Y. Xu, J. Song and M. Berelowitz, Proc. Natl. Acad. Sci. USA 89, 11151-11155 (1992). ^3 A. M. O'Carrol, S. J. Lolait, M. König and L. Mahan, Mol. Pharmacol. 42, 939-946 (1992). ^4 J. R. Hadcock, J. Strnad and C. M. Eppler, Mol. Pharmacol. 45, 410-416 (1994). ^5 J. Strnad, C. M. Eppler, M. Corbett and J. R. Hadcock, Biochem. Biophys. Res. Commun.191, 968-976 (1993).
Bovine adrenal gland extracts are prepared according to the method of Brown et al^6 with minor modifications. […] Two-four adrenals are thawed and the cortices are separated on ice: chopped into small pieces; resuspended in 1.5 volumes of buffer containing 0.25 M sucrose, 50 mM Tris-HCl pH 7.4, 25 mM KCl, 5 mM MgCl2 and protease inhibitors (5 µg/ml leupeptin, 5µg/ml aprotinin, 100 µg/ml bacitracin, and 100 µg/ml benzamidine; homogenized with a Polytron and centrifuged for 5 minutes. The resultant supernatant is saved and centrifuged for 15 minutes. This resultant supernatant is saved and stored as 1 mL aliquots at -80°C. Four adrenals glands are usually sufficient to prepare 30-50 one mL aliquots. Each preparation is tested with standards at different dilutions before use in the following experiment. ^6 B. L. Brown, J. D. M. Albano, R. P. Ekins and A. M. Sgherzi, Biochem. J. 121, 561-562 (1971).
Somatostatin-mediated inhibition of cyclic AMP accumulation is measured in intact cells co-incubated with the diterpene forskalin (5 µM) which activates adenylyl cyclase directly and stimulates cyclic AMP accumulation in cells. The medium is aspirated from two 100 mm plates of cells, a 5 mL portion of phosphate-buffered saline containing 2 mM EDTA is added to each plate. The cells are washed off the plate, without scraping. The cells are then pelleted and resuspended in Kreb's Ringers Phosphate (KRP) containing 2 mM CaCl2 (added fresh), washed once and resuspended in 2 ml of KRP with a CaCl2 containing 100 µM IBMX. The cells are counted and the concentration of cells is adjusted to 50,000/70 µl and incubated 15 minutes at room temperature before starting the assay.
Polypropylene tubes (12 x 75) are labelled (test samples are done in triplicate including controls). Test samples are prepared containing the following: no added peptide sample (basal), forskalin alone (10 µM final), and forskalin plus various amounts of S-14 (1 X 10^-10M to 1 X 10^-6M, final). The first two steps are done on the bench top. Volumes are adjusted with KRP and 10 µl 1 mM IBMX is added to each tube. The tubes are placed in a shaking 37°C water bath and 70 µl cells is added at 15 second intervals until final volume/tube is 100 µL (concentration of cells is 25-100,000/tube). The tubes are incubated for 15 minutes at 37°C, treated with 10 µl of 1.0 N HCl at 10 second intervals and transfered to an ice bath for 3 minutes (tubes may be stored overnight). The samples are neutralized with […] 1.0 N NaOH containing 250 mM Tris, pH 7.4.
The test tube racks are placed half way down in a large chest of ice. A 50µl portion of cyclic AMP standard (Sigma) is aliquoted to each tube in triplicate (e.g. 0, 0.5, 1.0, 2.0, 4.0, 8.0, 16.0 pmoles/tube), then 70µl KRP is added to each tube of standard. One set of tubes containing 220 µl KRP is set up for the background. […]
For `C[C@@H](O)[C@@H]1NC(=O)[C@H](CCCCN)NC(=O)[C@@H](Cc2c[nH]c3ccccc23)NC(=O)[C@H](Cc2ccc(O)cc2)NC(=O)[C@H](NC(=O)[C@@H](N)Cc2ccc([N+](=O)[O-])cc2)CSSC[C@@H](C(=O)N[C@H](Cc2ccc(O)cc2)C(N)=O)NC1=O`, the Emax was found to be 12%.

As to `C[C@@H](O)[C@@H]1NC(=O)[C@H](CCCCN)NC(=O)[C@@H](Cc2c[nH]c3ccccc23)NC(=O)[C@H](Cc2ccc(O)cc2)NC(=O)[C@H](NC(=O)[C@@H](N)Cc2ccc([N+](=O)[O-])cc2)CSSC[C@@H](C(=O)N[C@@H](Cc2ccc(O)cc2)C(N)=O)NC1=O`, the Emax came out at 5%.

Regarding `CC(=O)N[C@@H](Cc1ccc([N+](=O)[O-])cc1)C(=O)N[C@@H]1CSSC[C@@H](C(=O)N[C@H](Cc2ccc(O)cc2)C(N)=O)NC(=O)[C@H]([C@@H](C)O)NC(=O)[C@H](CCCCN)NC(=O)[C@@H](Cc2c[nH]c3ccccc23)NC(=O)[C@H](Cc2ccc(O)cc2)NC1=O`, the Emax is -3%.

For the compound `CC(=O)N[C@@H](Cc1ccc2ccccc2c1)C(=O)N[C@@H]1CSSC[C@@H](C(=O)N[C@@H](Cc2ccc(O)cc2)C(N)=O)NC(=O)[C@H]([C@@H](C)O)NC(=O)[C@H](CCCCN)NC(=O)[C@@H](Cc2c[nH]c3ccccc23)NC(=O)[C@H](Cc2ccc(O)cc2)NC1=O` (Ac-[2Nal][dC]Y[dW]KTCY-NH2; disulfide 2-7 (inferred)), the Emax is -26%.

Turning to `CC(C)[C@@H]1NC(=O)[C@H](CCCCN)NC(=O)[C@@H](Cc2c[nH]c3ccccc23)NC(=O)[C@H](Cc2ccc(O)cc2)NC(=O)[C@H](NC(=O)[C@@H](N)Cc2ccc3ccccc3c2)CSSC[C@@H](C(=O)N[C@@H](Cc2ccc(O)cc2)C(N)=O)NC1=O` (H-[2Nal][dC]Y[dW]KVCY-NH2; disulfide 2-7; N-terminus assumed), the Emax was determined as 13%.

With `CN[C@@H](Cc1ccc([N+](=O)[O-])cc1)C(=O)N[C@@H]1CSSC[C@@H](C(=O)N[C@@H](Cc2ccc(O)cc2)C(N)=O)NC(=O)[C@H](C(C)C)NC(=O)[C@H](CCCCN)NC(=O)[C@@H](Cc2c[nH]c3ccccc23)NC(=O)[C@H](Cc2ccc(O)cc2)NC1=O` (H-[NMePhe(4-NO2)][dC]Y[dW]KVCY-NH2; disulfide 2-7 (inferred)), the Emax is 9%.

`CC(C)[C@@H]1NC(=O)[C@H](CCCCN)NC(=O)[C@@H](Cc2c[nH]c3ccccc23)NC(=O)[C@H](Cc2ccc(O)cc2)NC(=O)[C@H](NC(=O)[C@@H](N)Cc2ccc([N+](=O)[O-])cc2)CSSC[C@@H](C(=O)N[C@@H](Cc2ccc(O)cc2)C(N)=O)NC1=O` (H-[Phe(4-NO2)][dC]Y[dW]KVCY-NH2; disulfide 2-7 (inferred)): the Emax was 11%.

With `CC(C)[C@@H]1NC(=O)[C@H](CCCCN)NC(=O)[C@@H](Cc2c[nH]c3ccccc23)NC(=O)[C@H](Cc2ccc(O)cc2)NC(=O)[C@H](NC(=O)[C@@H](N)Cc2ccc([N+](=O)[O-])cc2)CSSC[C@@H](C(=O)N[C@@H](Cc2ccc3ccccc3c2)C(N)=O)NC1=O` (H-[Phe(4-NO2)][dC]Y[dW]KVC[2Nal]-NH2; disulfide 2-7 (inferred)), the Emax is 8%.

For `CC[C@@H]1NC(=O)[C@H](CCCCN)NC(=O)[C@@H](Cc2c[nH]c3ccccc23)NC(=O)[C@H](Cc2ccc(O)cc2)NC(=O)[C@H](NC(=O)[C@@H](N)Cc2ccc([N+](=O)[O-])cc2)CSSC[C@@H](C(=O)N[C@@H](Cc2ccc(O)cc2)C(N)=O)NC1=O` (H-[Phe(4-NO2)][dC]Y[dW]K[Abu]CY-NH2; disulfide 2-7 (inferred)), the Emax came out at 21%.

In the case of `CC(C)[C@@H]1NC(=O)[C@H](CCCCN)NC(=O)[C@@H](Cc2c[nH]c3ccccc23)NC(=O)[C@H](Cc2ccc(O)cc2)NC(=O)[C@H](NC(=O)[C@H](N)Cc2ccc3ccccc3c2)CSSC[C@@H](C(=O)N[C@@H](Cc2ccc(O)cc2)C(N)=O)NC1=O` (H-[d2Nal][dC]Y[dW]KVCY-NH2; disulfide 2-7), the Emax turned out to be 8%.

Values taken from EP0791603A2, “Pure somatostatin antagonist and methods of use thereof” (American Cyanamid Company, priority 1996, dated 1997).
